Test results: patent US6670382B2, “Hydroxyformamidine derivatives and medicines containing the same” (Taisho Pharmaceutical Co., Ltd., priority 2000, dated 2003)

Key:
[1] = test system: 20-HETE synthase derived from rat kidney microsome; assay: Inhibitory effect of 20-HETE synthase derived from rat kidney microsome; type: biochemical; settings: SHR rat kidney microsome; for IC50: concentration at which 20-HETE production was inhibited to 50%; for Inhibition (1 µM): inhibition rate of 20-HETE production, subject compound 1 μM, 3H-arachidonic acid, NADPH, 1.5 hours at 37° C., pH 7.4
Method: [Inhibitory Effect of 20-HETE Synthase Derived from Rat Kidney Microsome]
Regarding the compounds listed in the Table described above, their inhibitory activities on production of 20-HETE were examined.
This examination was carried out based on the method described in J. Pharmacol. Exp. Ther., Vol. 268, p. 474 (1994).
The subject compound in an amount of 1 μM was added to a 50 mM of 3-morpholinopropanesulfonic acid buffer (MOPS) (pH 7.4), containing 5 mM of magnesium chloride, and 1 mM of ethylenediaminetetraacetic acid (EDTA) disodium salt.
Subsequently, the rat kidney microsome fraction prepared from the kidney of a spontaneously hypertensive rat (male, 6 weeks of age) as an enzyme, [5,6,8,9,11,12,14,15] tritium-arachidonic acid (supplied by Amasham) as a substrate, and NADPH (supplied by Sigma) as a coenzyme were added, and were reacted for 1.5 hours at 37° C.
After the reaction was quenched by adding formic acid (supplied by Wako Pure Chemical Industries Ltd.) to the reaction solution, acetonitrile (final concentration of 50%) was added thereto, and the mixture was allowed to stand for 1.5 hours at room temperature. The amount of 20-HETE production was measured by using a high performance liquid chromatography having a detector for radioactive substances (supplied by Gilson), equipped with an ODS column (Biocyl C18, supplied by Bio-rad).
Setting an amount of 20-HETE production to 100% when no subject compound was added, the inhibition rate (%) was calculated from the amount of 20-HETE production when a subject compound was added.
In addition, setting an amount of 20-HETE production to 100% when no subject compound was added, the concentration of the subject compound at which the production of the 20-HETE was inhibited to 50% when the subject compound is added (IC50 value) was also calculated.

SMILES	IC50 [1] [nM]	Inhibition (1 µM) [1] [%]	melting point [°C]
O/N=C/Nc1ccc(OCCCOc2ccccc2)nc1 [Comp. 36]	2.7	104.0	
COC(=O)COc1ccc(N/C=N/O)cn1 [Comp. 86]		82.6	
O/N=C/Nc1ccc(OCC2CCCCCC2)nc1 [Comp. 57]		114.2	
CCN(CC)CCC(Oc1ccc(N/C=N/O)cn1)C(F)(F)F (centres unmarked) [Comp. 129]			109 to 111
C#CCCOc1ccc(N/C=N/O)cn1 [Comp. 20]		31.0	
Cc1cccc(COc2ccc(N/C=N/O)cn2)n1 [Comp. 41]		83.0	
CN(C)CCOc1ccc(N/C=N/O)cn1 [Comp. 131]			105 to 106
CCSCCOc1ccc(N/C=N/O)cn1 [Comp. 28]	9.9	105.0	
O/N=C/Nc1ccc(OCCCc2cccnc2)nc1 [Comp. 33]	2.1	93.0	
O/N=C/Nc1ccc(OCCCc2ccncc2)nc1 [Comp. 37]	3.4	96.0	
CCCCCCCSc1ccc(N/C=N/O)cn1 [Comp. 114]		85.1	
CCCCSc1ccc(N/C=N/O)cn1 [Comp. 105]		100.5	
COCCOCCOc1ccc(N/C=N/O)cn1 [Comp. 12]	87.2	99.0	
Cc1cccc(COc2ccc(N/C=N/O)cn2)c1 [Comp. 79]		100.6	
CCCCCCCCOc1ccc(N/C=N/O)cn1 [Comp. 44]		100.7	
O/N=C/Nc1ccc(OCCc2ccc(Br)cc2)nc1 [Comp. 67]		108.6	
O/N=C/Nc1ccc(OCCC2CCCCC2)nc1 [Comp. 22]	2.1	108.0	
O/N=C/Nc1ccc(OCC2CC2)nc1 [Comp. 21]		73.0	
COc1ccc(CCCOc2ccc(N/C=N/O)cn2)cc1OC [Comp. 63]		102.3	
CCN(CC)CCOc1ccc(N/C=N/O)cn1 [Comp. 16]		60.0	
O/N=C/Nc1ccc(OCCn2cccc2)nc1 [Comp. 90]	4.3	105.7	
CC1(C)COC(CCOc2ccc(N/C=N/O)cn2)OC1 [Comp. 34]	7.6	89.0	
O/N=C/Nc1ccc(OCc2cccc(Oc3ccccc3)c2)nc1 [Comp. 76]		100.2	
CCC(C)CCOc1ccc(N/C=N/O)cn1 (centres unmarked) [Comp. 48]		102.8	
CCCCCCSc1ccc(N/C=N/O)cn1 [Comp. 113]		81.3	

SMILES	IC50 [1] [nM]	Inhibition (1 µM) [1] [%]	melting point [°C]
CC(C)CCSc1ccc(N/C=N/O)cn1 [Comp. 106]		77.5	
Cn1c(=O)c2c(ncn2CCOc2ccc(N/C=N/O)cn2)n(C)c1=O [Comp. 88]		71.8	
C/C=C/C=C/COc1ccc(N/C=N/O)cn1 [Comp. 58]		106.6	
O/N=C/Nc1ccc(OCCCc2ccccc2)nc1 [Comp. 14]	1.5	104.0	
CC1(C)OCC(COc2ccc(N/C=N/O)cn2)O1 (centres unmarked) [Comp. 13]	24	101.0	
O/N=C/Nc1ccc(OCC2CCC2)nc1 [Comp. 26]	27.2	99.0	
CCCCCCCOc1ccc(N/C=N/O)cn1 [Comp. 43]		89.5	
CC(C)=CCCC(C)CCOc1ccc(N/C=N/O)cn1 (centres unmarked) [Comp. 70]		108.1	
CC(C)CCCOc1ccc(N/C=N/O)cn1 [Comp. 49]		107.1	
COC(=O)CSc1ccc(N/C=N/O)cn1 [Comp. 108]		89.7	
CCN(CC)CCOCCOc1ccc(N/C=N/O)cn1 [Comp. 122]	624	99.6	
O/N=C/Nc1ccc(OCCCCCc2ccccc2)nc1 [Comp. 50]		108.2	
CC(C)OCCOc1ccc(N/C=N/O)cn1 [Comp. 19]		104.0	
O/N=C/Nc1ccc(OCc2ccoc2)nc1 [Comp. 40]		86.0	
O/N=C/Nc1ccc(OCCCCC2CCCCC2)nc1 [Comp. 29]		101.0	
COC(=O)CCSc1ccc(N/C=N/O)cn1 [Comp. 116]		93.1	
CCCCCCCCCSc1ccc(N/C=N/O)cn1 [Comp. 115]		89.0	
CC(C)=CCC/C(C)=C/COc1ccc(N/C=N/O)cn1 [Comp. 52]		108.7	
O/N=C/Nc1ccc(OCC2CC3CCC2C3)nc1 (centres unmarked) [Comp. 35]		98.0	
O/N=C/Nc1ccc(SCc2ccc(Cl)cc2)nc1 [Comp. 100]		79.5	
CC(=O)OCCOc1ccc(N/C=N/O)cn1 [Comp. 62]		112.8	
O/N=C/Nc1ccc(OCC2CCCCC2)nc1 [Comp. 11]	2.7	89.0	
CCN(CCOc1ccc(N/C=N/O)cn1)c1cccc(C)c1 [Comp. 85]		100.8	
Cc1ccc(CCOc2ccc(N/C=N/O)cn2)cc1 [Comp. 60]		109.9	
CC(C)(C)CCOc1ccc(N/C=N/O)cn1 [Comp. 30]		102.0	

SMILES	IC50 [1] [nM]	Inhibition (1 µM) [1] [%]	melting point [°C]
Cc1ncsc1CCOc1ccc(N/C=N/O)cn1 [Comp. 17]	2.1	100.0	
CCOC(=O)CCCCCOc1ccc(N/C=N/O)cn1 [Comp. 68]		102.6	
CC(C)=CCOc1ccc(N/C=N/O)cn1 [Comp. 18]		86.0	
CC(C)(C)COc1ccc(N/C=N/O)cn1 [Comp. 39]		62.0	
CC(C)=CCC/C(C)=C\COc1ccc(N/C=N/O)cn1 [Comp. 51]		111.0	
O/N=C/Nc1ccc(OCc2ccccc2CCc2ccccc2)nc1 [Comp. 75]		88.5	
O/N=C/Nc1ccc(OCc2ccc(Cl)cc2Cl)nc1 [Comp. 74]		69.3	
O/N=C/Nc1ccc(OCc2cccs2)nc1 [Comp. 15]	9.3	100.0	
O/N=C/Nc1ccc(OCc2ccco2)nc1 [Comp. 3]	49.6	102.0	
CCOC(=O)CCSc1ccc(N/C=N/O)cn1 [Comp. 118]		100.7	
CCOC(=O)CSc1ccc(N/C=N/O)cn1 [Comp. 103]		79.9	
CCCCCSc1ccc(N/C=N/O)cn1 [Comp. 112]		101.5	
O/N=C/Nc1ccc(OCc2ccncc2)nc1 [Comp. 23]	3.9	104.0	
O/N=C/Nc1ccc(OCCOC2CCCCC2)nc1 [Comp. 27]		71.0	
O/N=C/Nc1ccc(SC2CCCCC2)nc1 [Comp. 101]		91.8	
COc1ccc(CCCOc2ccc(N/C=N/O)cn2)cc1 [Comp. 64]		100.7	
O/N=C/Nc1ccc(OCCSc2ccccn2)nc1 [Comp. 25]	9.6	71.0	
O/N=C/Nc1ccc(OCCCCc2ccccc2)nc1 [Comp. 71]		99.0	
CCCCCCOc1ccc(N/C=N/O)cn1 [Comp. 42]		105.8	
O/N=C/Nc1ccc(OCc2ccsc2)nc1 [Comp. 38]	8.5	95.0	
O/N=C/Nc1ccc(OCCSc2ccccc2)nc1 [Comp. 95]		96.5	
COC(=O)c1ccc(COc2ccc(N/C=N/O)cn2)cc1 [Comp. 83]		98.8	
O/N=C/Nc1ccc(OCc2ccc(-c3ccccc3)cc2)nc1 [Comp. 84]		105.3	
